Where two headings read alike, the source gives them in different places.
Legend:
[1] = test system: multi-drug resistant strains of Enterobacteriaceae, including those producing serine carbapenemases; assay: Checkerboard MIC of Biapenem alone or in combination with Compound I at fixed concentrations (Example 4); assay type: cell-based
Experimental: The evaluation of Compound I in combination with the carbapenem antibiotic Biapenem against multi-drug resistant strains of Enterobacteriaceae, including those producing serine carbapenemases were also conducted. Antibiotic potentiation activity of Compound I was studied in checkerboard MIC experiments and time-kill assays. The MICs of Biapenem were […]) against characterized and engineered isolates producing various beta-lactamases, as well as in geographically diverse panels of multi-drug resistant strains of Enterobacteriaceae (including strains that express the most relevant beta-lactamases).

[2] = in vivo; set-up: species or system Swiss-Webster mice; conditions: mouse, ip
Experimental: Example 2 provides a summary of two pharmacokinetic studies of Biapenem conducted in Swiss-webster mice. The pharmacokinetics of 100 mg/kg and 25 mg/kg of Biapenem via the intraperitoneal route was discussed below.
Biapenem power was purchased from Hisun Pharmaceuticals. 20 mg of Biapenem was dissolved in 0.1 M NaH2PO4 for a basic stock solution. For animal studies, this stock solution was further diluted in 0.9% saline to the appropriate concentration.
The specifications for animals used on this study were as follows: • Species: Mouse • Strain: CFW (Swiss) • Gender: Female • Source: Harlan Laboratories (Livermore, Calif.) • Number of Animals: 33 for each dose • Body Weight Range: 18-22 g at the start of the study
After acclimation, mice were administered a single intraperitoneal dose of biapenem at 25 or 100 mg/kg. […] Blood samples (one sample per animal) were collected by cardiac puncture in a heparin containing tube. The collected heparin tubes were centrifuged within 5 min of collection at 12000 g for 5 min to obtain plasma. The plasma samples were stored on −80° C. until analyzed.
Biapenem standard curves were prepared in 50% plasma-50% 1M MOPS buffer, pH=7.4 from 1 to 250 ug/mL. 20 uL of sample or standard was added into a 96-well deep well plate. Then 500 uL of 10% water-45% methanol-45% acetonitrile containing 2 ug/mL of meropenem was used as an internal standard. The plate was vortexed for 15 min. at 3,000 RPM. 50 uL of supernatant was removed and added 300 uL of water. 10 uL of samples were injected onto an HPLC-MS system for quantification.
The HPLC-MS conditions for the Biapenem plasma analysis are as follows: • Column: Supelco Discovery HS F5 or equivalent pentafluorophenyl column, 5 um, 50×2.1 mm. • Flow rate: 0.6 mL/min. • Mobile phase A: 0.1% formic acid in water. • Mobile phase B: 0.1% formic acid in acetonitrile. • Gradient: 5-70% B in 1.9 min. • Mass spectrometer: Positive ion mode with electrospray ionization. • MS/MS: Biapenem-Q1-m/e=350.8, Q3-m/e=110.1. • meropenem-Q1-m/e=384.1, Q3-m/e=141.1.
Serum concentrations were determined using HPLC. Serum concentrations were fit by using Non-compartmental model of WinNonlin Software (Pharsight. Version 5.3, Mountain View, Calif.).

[3] = female, CFW (Swiss-Webster), 25 mg/kg
[4] = female, CFW (Swiss-Webster), 100 mg/kg
[5] = female, CFW (Swiss-Webster), 100 mg/kg, Calc. Conc. (plasma concentration)

With `C[C@@H](O)[C@H]1C(=O)N2C(C(=O)[O-])=C(SC3Cn4cnc[n+]4C3)[C@H](C)[C@H]12` (stereo partly shown) [Biapenem] as the compound, how does the MIC ([1]; read-out: Biapenem MICs in the presence of Compound I, in the presence of 0.3 to 5 μg/ml of Compound I, characterized strains of Enterobacteriaceae with serine carbapenemases) read?
Its MIC is < 0.25 µg/mL.

What about the MIC ([1]; read-out: Biapenem MICs, Biapenem alone, KPC-producing strains including those expressing multiple classes of enzymes) of the same compound?
Its MIC is 8 to 64 µg/mL.

And the MIC ([1]; read-out: Biapenem MICs, Biapenem alone, KPC-producing strains used in the time-kill studies)?
Its MIC is 16 to 32 µg/mL.

And the MIC90 ([1]; read-out: MIC90 of Biapenem with Compound I)?
The MIC90 was 0.5 µg/mL.

What about the Cl [2, 3] of the same compound?
The Cl was 26.7 mL/min/kg.

And the Cmax [2, 3]?
The Cmax was 31200 ng/mL.

And the half-life [2, 3]?
The half-life was 10.2 min.

And the Cl [2, 4]?
The Cl was 16 mL/min/kg.

What about the Cmax [2, 4] of the same compound?
Its Cmax is 286000 ng/mL.

What about the half-life [2, 4] of the same compound?
The half-life was 12.6 min.

What about the concentration at 0.08 h [2, 5] of the same compound?
The concentration at 0.08 h was 1770 ng/mL.

And the concentration at 0.25 h [2, 5]?
Its concentration at 0.25 h is 68400 ng/mL.

What about the concentration at 0.5 h [2, 5] of the same compound?
The concentration at 0.5 h was 120 ng/mL.

What about the concentration at 0.75 h [2, 5] of the same compound?
Its concentration at 0.75 h is 30500 ng/mL.

And the concentration at 3 h [2, 5]?
Its concentration at 3 h is 12.3 ng/mL.

And the concentration at 4 h [2, 5]?
Its concentration at 4 h is 10.2 ng/mL.

What about the AUC ([2]; 25 mg/kg) of the same compound?
The AUC was 15.56 mg·h/kg.

And the “Calc. Conc. (plasma concentrations of Biapenem)” value ([2]; 25 mg/kg)?
Its value is “No Peak”.

And the AUC ([2]; 100 mg/kg)?
Its AUC is 103.55 mg·h/kg.

Source: patent US11007206B2, “Cyclic boronic acid ester derivatives and therapeutic uses thereof” (Melinta Subsidiary Corp., priority 2012, dated 2021)
